How the values were obtained:
[1] = Pharmacokinetics of intranasal esketamine in healthy subjects (Example 9); settings: healthy subjects; 28, 56 and 84 mg
Experimental: Pharmacokinetic blood samples for measurement of esketamine and noresketamine concentrations in plasma were collected from predose until up to 24 hours after each intranasal esketamine regimen on Day 1 of each period.
Blood samples (4 mL each) for determination of esketamine and noresketamine plasma concentrations were collected into the appropriate collection tube (e.g., Vacutainer®) at timepoints 0.00, 0.12, 0.20, 0.37, 0.53, 0.67, 0.83, 1.00, 1.25, 1.50, 2.00, 3.00, 4.00, 6.00, 9.00, 12.00, 18.00, and 24.00 h. The total amount of blood to be drawn for clinical laboratory tests and PK evaluations is approximately 327 mL.
Plasma samples were analyzed for esketamine and noresketamine concentrations using the validated, specific and sensitive liquid chromatography coupled to tandem mass spectrometry (LC-MS/MS) achiral method of Example 8.
Serial PK blood samples (4 mL each) were collected for a 24-hour period from each subject (Periods 1, 2, and 3). […] Statistical Methods 1.6.4.1. Sample Size
The following key parameters of esketamine and noresketamine in plasma were calculated using noncompartmental methods and actual sampling times: Cmax, tmax, AUClast, AUC∞, t1/2,λ, and λz.

[2] = tested on: glutamate NMDA receptor; settings: in vitro; cited from earlier work
[3] = tested on: adult subjects with TRD; settings: US patients
Source text: Adverse events were reported by the subject (or, when appropriate, by a caregiver, surrogate, or the subject's legally acceptable representative) for the duration of the study. Adverse events were followed by the investigator. TEAEs of special interest were examined separately.
The verbatim terms used in the eCRF by investigators to identify adverse events were coded using the MedDRA. All reported adverse events with onset during the double-blind induction phase (i.e., TEAEs, and adverse events that have worsened since baseline) were included in the analysis. For each adverse event, the percentage of subjects who experience at least 1 occurrence of the given event was summarized by treatment group. Adverse events occurring during the follow-up phase were summarized separately.
TEAEs of special interest were examined separately. AEs of special interest were listed in the SAP. Subjects who died, who discontinued treatment due to an adverse event, or who experienced a severe or a serious adverse event were summarized separately.
An adverse event is any untoward medical occurrence in a clinical study subject administered a medicinal (investigational or non-investigational) product. […]

[4] = tested on: patients with treatment-resistant depression (TRD); test: BPRS positive symptom subscale, Example 7; set-up: species or system human; settings: in vivo
Experimental: Adverse events were monitored throughout the study. Other safety assessments (i.e., laboratory tests, vital signs, physical examination) were performed at pre-specified time points. Vital signs, the Clinician Administered Dissociative States Scale (CADSS; Bremner, “Measurement of dissociative states with the clinician-administered dissociative states scale (CADSS)”, J. Traumatic Stress, 1998, 11(1):125-136), and the 4-item positive symptom subscale from the Brief Psychiatric Rating Scale (BPRS; Overall, “The Brief Psychiatric Rating Scale. Psychological Reports”, 1962, 10:799-812) were assessed pre-dose, at 40 minutes, and 2 hours post-dose.

[5] = tested on: female Sprague-Dawley rats, PCG/RSC of the brain; test: 14-day repeated dose neurotoxicity study, intranasal instillation; settings: 14-day study, 54 mg/day
Experimental: Esketamine HCl was administered into each nostril of female rats at a volume of 50 μl per nostril either once, twice or thrice daily by intranasal instillation for 14 consecutive days at doses of 0 (vehicle), 18, 36 or 54 mg/day. At each instillation, the second nostril was dosed immediately after the first nostril. The interval between subsequent instillations into both nostrils was 5 minutes when dosed 2 or 3 times per day.
The vehicle control group received 3 subsequent intranasal instillations of the vehicle into both nostrils (50 μL per nostril) with 5-minute intervals for 14 consecutive days.
The positive control group received a single subcutaneous injection of (+)MK-801 at 48 hours prior to the necropsy of the vehicle control and esketamine HCl-treated animals.
Each group of main study animals consisted of 12 female rats. Four satellite animals were added to the esketamine HCl-dosed groups of main study animals for TK purposes. The plasma exposure to esketamine was measured in these animals on the first and the last day of dosing at various time points up to and including 24 hours after the first instillation.
Due to logistic constraints associated with the whole body perfusion procedure of the animals at necropsy, a staggered start was applied to the study. Consequently, all 5 groups of main study animals were divided into three subgroups of 4 animals each. For each of these subgroups treatment started on a different day. The perfusion procedure is the is the same as described for the single dose study.
All vehicle- and esketamine HCl-treated animals were sacrificed at 48 hours after the last instillation. […] The brain tissue of the vehicle control-, positive control- and esketamine HCl-treated rats were processed at the same time and handled in the same way in batches of 4 animals per group.
Furthermore, clinical observations were recorded for the esketamine HCl-dosed rats on the day of dosing at 0 till 5 minutes, 15 and 30 minutes, and at 1, 2, 4, 6 hours post-dose, at the end of the working day and at 24 hours after the last instillation in the single dose study and on the first day of dosing, after one week and towards the end of the dosing period in the repeated dose study. Body weight and body weight gain were measured daily. Food consumption was measured weekly in the repeated dose study.
On the day of terminal kill, a complete physical examination was performed on the rats in fasted condition and body weight was recorded. The surviving animals were anaesthetized by inhalation of an isoflurane (IsoFlo® Zoetis, Belgium)/oxygen mixture and killed by exsanguination via the carotid artery. […] All terminally killed rats or those killed pre-terminally were perfused with 4% paraformaldehyde in the single dose study and with glutaraldehyde 3% in potassium phosphate buffer 0.09 M with 1.4% sucrose in the repeated dose study.
Brain tissue was sampled and processed routinely. The trimmed and embedded tissue was sectioned and stained with hematoxylin-eosin (HE). Histoprocessing and staining were carried out in three batches of 4 animals per group (each batch thus containing 4 animals from vehicle control-, positive control- and the three esketamine HCl-treated groups). In the single dose study duplicate brain sections were stained with Fluoro-Jade (FJ).
All tissues showing gross abnormalities were examined […]. Histopathological examination was performed on 7 levels of brain tissue according to Bolon (2013. Toxicol. Pathol. 41(7), 1028-1048) from the vehicle control-, positive control-, and high dose esketamine HCl-treated groups in the single dose study, and in all groups in the repeated dose study.

[6] = tested on: subjects with TRD; set-up: species or system human; settings: in vivo
Source text: Subjects with and without hypertension experienced similar magnitude of mean increases of SBP and DBP.
The maximum mean increases (across all dosing days within the respective phase) in diastolic BP were 5.6 and 5.2 in the IND and OP/MA phases, respectively.

[7] = tested on: patients with treatment-resistant depression (TRD); test: CGI-S, Example 7; type: in vivo, human
Experimental: Overall illness severity was assessed on the Clinical Global Impression of Severity (CGI-S) scale (Guy, “ECDEU Assessment Manual for Psychopharmacology-Revised (DHEW Publ No ADM 76-338)”, Rockville, Md.: U.S. Department of Health, Education, and Welfare, Public Health Service, Alcohol, Drug Abuse, and Mental Health Administration, NIMH Psychopharmacology Research Branch, Division of Extramural Research Programs; 1976, pp 218-222). Participants assessed their severity of anxiety on the Generalized Anxiety Disorder 7-item (GADS-7) Scale (See, Tables 157 and 15). See, Spitzer, “A brief measure for assessing generalized anxiety disorder—the GAD-7”, Arch. Intern. Med., 2006, 166(10):1092-1097.

CN[C@]1(c2ccccc2Cl)CCCCC1=O [esketamine, (S)-2-(2-chlorophenyl)-2-(methylamino)cyclohexanone]
AUC (AUClast and AUC∞) variability, range [1]: 25.0% to 30.4 | Cmax variability (percent coefficient of variation), range across treatment groups [1]: 35.7% to 36.7 | Greater affinity for the glutamate NMDA receptor than R-ketamine [2]: 3 to 4 fold | Patients who withdrew from nasal spray drug [3]: 3 patients | Symptoms suggestive of psychosis (BPRS-positive assessment) [4]: No participant manifested symptoms suggestive of psychosis | AUC-based safety margin compared with the maximum 84 mg clinical dose [5]: ~11 fold | Cmax-based safety margin compared with the maximum 84 mg clinical dose [5]: approximately 17 fold | Subjects who discontinued intranasal esketamine due to increased blood pressure [6]: Six | CGI-S Median Change ([7]; 28 mg, Period 1, first day to day 8): −1.0 | CGI-S Median ([7]; 28 mg, Period 1 end point): 4.0 | CGI-S Median Change ([7]; 28 mg, Period 2, first day to day 8 of period): −1.0 | CGI-S Median ([7]; 28 mg, Period 2 end point): 4.0 | CGI-S Median Change ([7]; 56 mg, Period 1, first day to day 8): −1.0 | CGI-S Median ([7]; 56 mg, Period 1 end point): 4.0 | CGI-S Median Change ([7]; 56 mg, Period 2, first day to day 8 of period): −1.0 | CGI-S Median ([7]; 56 mg, Period 2 endpoint): 5.0 | CGI-S Median Change ([7]; 84 mg, Period 1, first day to day 8): −0.5 | CGI-S Median ([7]; 84 mg, Period 1 end point): 4.0 | CGI-S Median Change ([7]; 84 mg, Period 2, first day to day 8 of period): −1.0 | CGI-S Median ([7]; 84 mg, Period 2 endpoint): 4.0
